From ChEMBL document CHEMBL3612043, “Synthesis and biological evaluation of 6-substituted indolizinoquinolinediones as catalytic DNA topoisomerase I inhibitors” (Eur J Med Chem, 2015) come the findings set out here.

Activity calls are given as the source filed them. No cut-off for these calls is given here.

Test [1] can be described thus: Inhibition of calf thymus Top1-mediated pBR322 DNA relaxation preincubated for 15 mins measured after 30 mins by ethidium bromide staining. More on the design: species or system Bos taurus.
The test system of another test is CA46. Kind of test: Cytotoxicity against human CA46 cells after 48 hrs by MTT assay. It is filed as functional, cell-based. Particulars: CA46, 48 h. A general note: Formazan colour is commonly taken as a measure of viable cells.
Test [2] deals with T1, DNA topoisomerase 1 (Homo sapiens) (UniProt P11387).
T1 sequence (whole entry): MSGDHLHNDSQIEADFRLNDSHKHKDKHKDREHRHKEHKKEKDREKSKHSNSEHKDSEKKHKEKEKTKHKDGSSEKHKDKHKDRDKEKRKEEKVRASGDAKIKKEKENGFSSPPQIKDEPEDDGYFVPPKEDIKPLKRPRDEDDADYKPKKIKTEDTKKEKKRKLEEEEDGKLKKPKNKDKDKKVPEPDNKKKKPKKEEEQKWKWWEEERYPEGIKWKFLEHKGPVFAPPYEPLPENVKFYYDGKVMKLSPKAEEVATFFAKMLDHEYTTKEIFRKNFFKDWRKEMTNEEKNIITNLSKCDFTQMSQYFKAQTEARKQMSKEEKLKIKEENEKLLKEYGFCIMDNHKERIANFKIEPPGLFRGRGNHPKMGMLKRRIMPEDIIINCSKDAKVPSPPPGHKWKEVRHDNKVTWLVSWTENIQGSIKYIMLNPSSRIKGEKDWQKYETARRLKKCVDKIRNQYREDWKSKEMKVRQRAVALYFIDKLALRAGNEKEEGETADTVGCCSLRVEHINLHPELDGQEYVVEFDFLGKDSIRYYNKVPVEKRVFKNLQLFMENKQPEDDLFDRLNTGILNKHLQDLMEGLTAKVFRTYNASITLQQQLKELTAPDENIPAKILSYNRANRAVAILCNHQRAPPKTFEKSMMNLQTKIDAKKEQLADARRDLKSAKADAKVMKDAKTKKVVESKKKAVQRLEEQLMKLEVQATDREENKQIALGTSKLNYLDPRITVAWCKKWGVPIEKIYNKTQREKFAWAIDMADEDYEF
The test can be described thus: Induction of recombinant Top1 (unknown origin) assessed as 3'-[32P]-labeled 117-bp DNA oligonucleotide cleavage after 20 mins.

The species entered for another test is Bos taurus. Kind of test: Inhibition of calf thymus Top1-mediated pBR322 DNA relaxation at 25 uM preincubated for 15 mins measured after 30 mins by ethidium bromide staining relative to camptothecin.
Another test relates to A549. Kind of test: cells. The conditions noted are these: Homo sapiens, A549, 48 h.
The next test deals with HeLa. Kind of test: cells. The conditions noted are these: Homo sapiens, 48 h.
Another test relates to HL-60. Kind of test: cells. The conditions noted are these: Homo sapiens, HL-60, 48 h.
The target of test [3] is T1, DNA topoisomerase 1 (Homo sapiens). Kind of test: Inhibition of Top1 (unknown origin)-mediated unwinding of relaxed pBR322 DNA preincubated for 10 mins measured after 30 mins by UV transilluminator analysis.

A word on the IC50: it is the concentration at which inhibition is half-maximal. The low end stands for higher potency, the high end for lower potency.

Description for A549: Cytotoxicity against human A549 cells after 48 hrs by MTT assay
Description for HL-60: Cytotoxicity against human HL60 cells after 48 hrs by MTT assay
Description for HeLa: Cytotoxicity against human HeLa cells after 48 hrs by MTT assay

Consider `CC[C@@]1(O)C(=O)OCc2c1cc1n(c2=O)Cc2cc3ccccc3nc2-1` [CAMPTOTHECIN], for which the IC50 in test [1] was 25000 nM; in the test on CA46, 520 nM; in the test with A549, 1600 nM; in the test on HeLa it was 14000 nM; with HL-60, 15 nM. Besides, the result in test [2] was inactive. Besides, the Top1 relaxation inhibition relative to camptothecin (%) in the test listed under Bos taurus worked out at 81%.
Take `O=C1c2cccnc2C(=O)c2c1c(C(=O)OCCN1CCOCC1)c1ccccn21`: the inhibition result in test [3] was “inactive”. Besides, the IC50 in the test on CA46 is 5800 nM; in the test with A549 it was less than 10 nM; with HeLa it was 10000 nM; in the test on HL-60, 34 nM. Moreover, the result in test [2] was inactive. For the same molecule, the Top1 relaxation inhibition relative to camptothecin (%) in the test filed under Bos taurus is more than 120%.
On to `O=C1c2cccnc2C(=O)c2c1c(C(=O)NCCCN1CCOCC1)c1ccccn21`, for which, in test [3], the inhibition result is “Active”. The IC50 in the test with CA46 was found to be 1100 nM; with A549, 4200 nM; with HeLa it was 5900 nM; in the test with HL-60, 1300 nM. The result in test [2] was inactive. Further, the Top1 relaxation inhibition relative to camptothecin (%) in the test filed under Bos taurus is more than 120%.
As to `O=C1c2cccnc2C(=O)c2c1c(C(=O)NCCN1CCCC1)c1ccccn21`, in test [3], the inhibition entry was “Active”. The IC50 in the test with CA46 was found to be 15000 nM; with A549, 490 nM; with HeLa it was 780 nM; in the test with HL-60 it was 1200 nM. Moreover, in test [2], the result was inactive. Further, the Top1 relaxation inhibition relative to camptothecin (%) in the test filed under Bos taurus is more than 120%.
With `O=C1c2cccnc2C(=O)c2c1c(C(=O)OCCCN1CCCCC1)c1ccccn21`, the inhibition entry in test [3] was “Active”. Also, the IC50 in the test on CA46 was determined as 900 nM; in the test on A549 it was 1000 nM; in the test on HeLa it was 480 nM; in the test on HL-60 it was 25 nM. Besides, the result in test [2] was inactive. Besides, in the test listed under Bos taurus, the Top1 relaxation inhibition relative to camptothecin (%) is more than 120%.
As to `O=C1c2cccnc2C(=O)c2c1c(C(=O)OCCc1ccccn1)c1ccccn21`, in test [3], the inhibition entry is “inactive”. The IC50 with CA46 came to 2900 nM; in the test with A549, 7800 nM; in the test with HeLa, 1100 nM; with HL-60, 110 nM. Besides, the outcome in test [2] was inactive. In addition, the Top1 relaxation inhibition relative to camptothecin (%) in the test listed under Bos taurus came to 81%.
